Results taken from US12643883B2, “Solid state forms of a kinase inhibitor” (Deciphera Pharmaceuticals, LLC, priority 2023, dated 2026).

Key:
Type in all cases: physicochemical
[1] = Static storage stability of crystalline dihydrate and anhydrous forms (XRPD, DSC, KF once weekly for four weeks)
Experimental: The stability of crystalline dihydrate and anhydrous forms of the compound represented by Formula (I) at varying relative humidity (RH) and temperature was investigated.
For example, the stability of crystalline dihydrate and anhydrous forms of the compound represented by Formula (I), as prepared according to Example 1 and Example 2, respectively, was studied under other conditions by placing aliquots of each form in static storage at conditions of 40° C./75% RH, 25° C./97% RH, 40° C./0% RH and 25° C./0% RH and analyzing the aliquots once weekly for four weeks using XRPD, DSC, and KF.

[2] = Hydration experiment, slurry of crystalline anhydrous form in deionized water; conditions: successive 4-hour heat-cool cycles between 40° C. and room temperature for 72 hours
Experimental: In a hydration experiment, a slurry of the crystalline anhydrous form of the compound represented by Formula (I) and deionized water was subjected to successive 4-hour heat-cool cycles between 40° C. and room temperature for 72 hours.

[3] = Hydration of the crystalline anhydrous form in low water activity solvents; conditions: water activity 0.1, Ambient, XRPD
Experimental: The hydration of the crystalline anhydrous form was studied using aqueous solvent systems with low water activity of 0.1. Slurries of the crystalline anhydrous form in the respective solvent were agitated for 6 days at room temperature. Aliquots of isolated materials were analyzed after 24, 48, and 144 hours of agitation. Table 12 summarizes the experiment conditions and isolated crystalline forms, as determined by XRPD.

[4] = static storage 25° C./0% RH, Week 4, listed as crystalline dihydrate form (having average crystal sizes of about 1 mm), dihydrate
[5] = static storage 40° C./0% RH, Week 1, dihydrate
[6] = static storage 40° C./0% RH, Week 4, listed as crystalline dihydrate form (having average crystal sizes of about 1 mm), dihydrate
[7] = static storage 25° C./0% RH, Week 1
[8] = static storage 25° C./0% RH, Week 2
[9] = static storage 25° C./0% RH, Week 3
[10] = static storage 25° C./0% RH, Week 4
[11] = static storage 25° C./97% RH, Week 1
[12] = static storage 25° C./97% RH, Week 2
[13] = static storage 25° C./97% RH, Week 3
[14] = static storage 25° C./97% RH, Week 4
[15] = static storage 40° C./0% RH, Week 1
[16] = static storage 40° C./0% RH, Week 2
[17] = static storage 40° C./0% RH, Week 3
[18] = static storage 40° C./0% RH, Week 4
[19] = static storage 40° C./75% RH, Week 1
[20] = static storage 40° C./75% RH, Week 2
[21] = static storage 40° C./75% RH, Week 3
[22] = static storage 40° C./75% RH, Week 4

What does the source list for Cc1nc(-c2cnc(NC(C)C)n(C)c2=O)ccc1Oc1ccnc(-c2cnn(C)c2)c1 [Dihydrate form of the compound represented by Formula (I) (h] [2-(isopropylamino)-3-methyl-5-(6-methyl-5-((2-(1-methyl-1H-pyrazol-4-yl)pyridin-4-yl)oxy)pyridin-2-yl)pyrimidin-4 (3H)-one dihydrate]?
XRPD ([1]; static storage 25° C./0% RH, Week 1, dihydrate): Dihydrate; KF (%) ([1]; static storage 25° C./0% RH, Week 1, dihydrate, dihydrate crystals about 10-50 µm): 7.5%; XRPD ([1]; static storage 25° C./0% RH, Week 2, dihydrate): Dihydrate; KF (%) ([1]; static storage 25° C./0% RH, Week 2, dihydrate, dihydrate crystals about 10-50 µm): 7.7%; XRPD ([1]; static storage 25° C./0% RH, Week 3, dihydrate): Dihydrate; KF (%) ([1]; static storage 25° C./0% RH, Week 3, dihydrate, dihydrate crystals about 10-50 µm): 8.1%; XRPD ([1]; static storage 25° C./0% RH, Week 4, dihydrate): Dihydrate; KF (%) ([1]; static storage 25° C./0% RH, Week 4, dihydrate, dihydrate crystals about 10-50 µm): 7.9%; KF (%) [1, 4]: 5.8%; XRPD [1, 4]: partially converted to the crystalline anhydrous form; XRPD ([1]; static storage 25° C./97% RH, Week 1, dihydrate): Dihydrate; KF (%) ([1]; static storage 25° C./97% RH, Week 1, dihydrate, dihydrate crystals about 10-50 µm): 7.6%; XRPD ([1]; static storage 25° C./97% RH, Week 2, dihydrate): Dihydrate; KF (%) ([1]; static storage 25° C./97% RH, Week 2, dihydrate, dihydrate crystals about 10-50 µm): 7.5%; XRPD ([1]; static storage 25° C./97% RH, Week 3, dihydrate): Dihydrate; KF (%) ([1]; static storage 25° C./97% RH, Week 3, dihydrate, dihydrate crystals about 10-50 µm): 7.9%; XRPD ([1]; static storage 25° C./97% RH, Week 4, dihydrate): Dihydrate; KF (%) ([1]; static storage 25° C./97% RH, Week 4, dihydrate, dihydrate crystals about 10-50 µm): 7.9%; XRPD ([1]; static storage 25° C./97% RH, Week 4, listed as crystalline dihydrate form (having average crystal sizes of about 1 mm), dihydrate): remained stable and unchanged; XRPD [1, 5]: Pattern 4; KF (%) ([1]; static storage 40° C./0% RH, Week 1, dihydrate, dihydrate crystals about 10-50 µm): 7.5%; XRPD ([1]; static storage 40° C./0% RH, Week 1, listed as crystalline dihydrate form (having crystal sizes in the range of about 10-50 μm , dihydrate)): Pattern 4; XRPD ([1]; static storage 40° C./0% RH, Week 2, dihydrate): Pattern 4; KF (%) ([1]; static storage 40° C./0% RH, Week 2, dihydrate, dihydrate crystals about 10-50 µm): 7.4%; XRPD ([1]; static storage 40° C./0% RH, Week 2, listed as crystalline dihydrate form (having crystal sizes in the range of about 10-50 μm , dihydrate)): Pattern 4; XRPD ([1]; static storage 40° C./0% RH, Week 3, dihydrate): Anhydrous; KF (%) ([1]; static storage 40° C./0% RH, Week 3, dihydrate, dihydrate crystals about 10-50 µm): 7.0%; XRPD ([1]; static storage 40° C./0% RH, Week 3, listed as crystalline dihydrate form (having crystal sizes in the range of about 10-50 μm , dihydrate)): Pattern 4 and peaks at 9.9° and 10.6°; KF (%) ([1]; static storage 40° C./0% RH, Week 4, dihydrate, dihydrate crystals about 10-50 µm): 3.4%; KF (%) [1, 6]: 0.2%; XRPD [1, 6]: partially converted to the crystalline anhydrous form; XRPD ([1]; static storage 40° C./0% RH, Week 4, listed as crystalline dihydrate form (having crystal sizes in the range of about 10-50 μm , dihydrate)): Pattern 4 and peaks at 9.9° and 10.6°; XRPD ([1]; static storage 40° C./75% RH, Week 1, dihydrate): Dihydrate; KF (%) ([1]; static storage 40° C./75% RH, Week 1, dihydrate, dihydrate crystals about 10-50 µm): 7.5%; XRPD ([1]; static storage 40° C./75% RH, Week 2, dihydrate): Dihydrate; KF (%) ([1]; static storage 40° C./75% RH, Week 2, dihydrate, dihydrate crystals about 10-50 µm): 7.9%; XRPD ([1]; static storage 40° C./75% RH, Week 3, dihydrate): Dihydrate; KF (%) ([1]; static storage 40° C./75% RH, Week 3, dihydrate, dihydrate crystals about 10-50 µm): 8.0%; XRPD ([1]; static storage 40° C./75% RH, Week 4, dihydrate): Dihydrate; KF (%) ([1]; static storage 40° C./75% RH, Week 4, dihydrate, dihydrate crystals about 10-50 µm): 7.9%; XRPD ([1]; static storage 40° C./75% RH, Week 4, listed as crystalline dihydrate form (having average crystal sizes of about 1 mm), dihydrate): remained stable and unchanged

Which XRPD [1, 5] does the source give for Cc1nc(-c2cnc(NC(C)C)n(C)c2=O)ccc1Oc1ccnc(-c2cnn(C)c2)c1 [ground crystalline dihydrate form, 2-(isopropylamino)-3-methyl-5-(6-methyl-5-((2-(1-methyl-1H-pyrazol-4-yl)pyridin-4-yl)oxy)pyridin-2-yl)pyrimidin-4 (3H)-one dihydrate] here?
Its XRPD is “Pattern 4 and the crystalline anhydrous form”.

With Cc1nc(-c2cnc(NC(C)C)n(C)c2=O)ccc1Oc1ccnc(-c2cnn(C)c2)c1 [2-(isopropylamino)-3-methyl-5-(6-methyl-5-((2-(1-methyl-1H-pyrazol-4-yl)pyridin-4-yl)oxy)pyridin-2-yl)pyrimidin-4 (3H)-one] as the molecule, how does the “isolated solid identified by XRPD” value [2] read?
The value was “crystalline dihydrate form”.

And the “Observed Forms 24 h” value ([3]; slurry in Acetone/water (99:1))?
The value was “Anhydrous”.

And the “Observed Forms 144 h” value ([3]; slurry in Acetone/water (99:1))?
Its value is “Anhydrous”.

And the “Observed Forms 24 h” value ([3]; slurry in MEK/water (99:1))?
The value was “Anhydrous”.

What about the “Observed Forms 144 h” value ([3]; slurry in MEK/water (99:1)) of the same molecule?
Its value is “Dihydrate”.

What about the “stability under all storage conditions” value ([1]; 40° C./75% RH, 25° C./97% RH, 40° C./0% RH and 25° C./0% RH, after 4 weeks) of the same molecule?
The value was “remained stable”.

And the “KF (%)” value [1, 7]?
The value was 0.1%.

And the XRPD [1, 7]?
Its XRPD is “Anhydrous”.

What about the “KF (%)” value [1, 8] of the same molecule?
The value was 0.1%.

What about the XRPD [1, 8] of the same molecule?
The XRPD was “Anhydrous”.

And the “KF (%)” value [1, 9]?
Its value is 0.0%.

What about the XRPD [1, 9] of the same molecule?
The XRPD was “Anhydrous”.

And the “KF (%)” value [1, 10]?
Its value is 0.2%.

And the XRPD [1, 10]?
The XRPD was “Anhydrous”.

What about the “KF (%)” value [1, 11] of the same molecule?
The value was 0.3%.

And the XRPD [1, 11]?
Its XRPD is “Anhydrous”.

What about the “KF (%)” value [1, 12] of the same molecule?
Its value is 0.3%.

What about the XRPD [1, 12] of the same molecule?
Its XRPD is “Anhydrous”.

And the “KF (%)” value [1, 13]?
The value was 0.2%.

What about the XRPD [1, 13] of the same molecule?
Its XRPD is “Anhydrous”.

What about the “KF (%)” value [1, 14] of the same molecule?
Its value is 0.4%.

And the XRPD [1, 14]?
Its XRPD is “Anhydrous”.

And the “KF (%)” value [1, 15]?
The value was 0.1%.

And the XRPD [1, 15]?
The XRPD was “Anhydrous”.

And the “KF (%)” value [1, 16]?
The value was 0.0%.

What about the XRPD [1, 16] of the same molecule?
The XRPD was “Anhydrous”.

And the “KF (%)” value [1, 17]?
Its value is 0.0%.

And the XRPD [1, 17]?
The XRPD was “Anhydrous”.

What about the “KF (%)” value [1, 18] of the same molecule?
Its value is 0.2%.

What about the XRPD [1, 18] of the same molecule?
Its XRPD is “Anhydrous”.

And the “KF (%)” value [1, 19]?
The value was 0.3%.

And the XRPD [1, 19]?
Its XRPD is “Anhydrous”.

And the “KF (%)” value [1, 20]?
The value was 0.2%.

And the XRPD [1, 20]?
Its XRPD is “Anhydrous”.

What about the “KF (%)” value [1, 21] of the same molecule?
The value was 0.1%.

And the XRPD [1, 21]?
The XRPD was “Anhydrous”.

What about the “KF (%)” value [1, 22] of the same molecule?
Its value is 0.3%.

What about the XRPD [1, 22] of the same molecule?
The XRPD was “Anhydrous”.
